Laboratory results taken from patent publication US10517863B2, “Trilobine and its natural analogs for use as a drug” (PIERRE FABRE MEDICAMENT, priority 2015, dated 2019).

Experiments:
[1] = system: CMV promoter in KG-1 Luc cells; assay: CMV promoter analysis by NOMe-Seq: DNA methylation and nucleosome occupancy; type: cell-based, human; conditions: at 5 μM, 24 h
Method: Using the Nucleosome Occupancy and Methylome Sequencing (NOMe-Seq) technique, the methylation status of the CMV promoter and the position of the nucleosomes on such promoter were both analysed.
NOMe-seq is a modified version of the methylation-dependent single promoter assay described by Miranda et al. (Curr Protoc Mol Biol. 2010 21.17.1-16) and the methylase-based DNA assay was performed as previously described with minor modifications (Hochedlinger K, Plath K 2009; Sharma et al. 2010, You et al. 2011, Kelly et al. 2012). After nuclei extraction, GpC methyltransferase (M.CviPI; New England Biolabs) reactions were done in M.CviPI reaction buffer. GpC methyltransferase treatment was followed by DNA extraction, sodium bisulfite conversion, PCR amplification of the region of interest, cloning, and sequencing of individual clones to reveal the structure of single replicas as functional units. After treatment with the compounds or with DMSO, KG-1 Luc cells were centrifuged for 5 min at 500×g. Cell pellets were washed in ice-cold PBS, resuspended in 1 mL of ice-cold nuclei buffer [10 mM Tris (pH 7.4), 10 mM NaCl, 3 mM MgCl2, 0.1 mM EDTA, and 0.5% Nonidet P-40, plus protease inhibitors] per 2×10^6 cells, and incubated on ice for 10 min. […]

[2] = target: T1, His-DNMT1 (182 kDa, human) (Homo sapiens, UniProt P26358); assay: hDNMT1 assay ([methyl-3H] SAM Flashplate); type: biochemical; conditions: read-out: hDNMT1 percentage of inhibition
T1 construct: His; made in house
T1 sequence (P26358 whole entry): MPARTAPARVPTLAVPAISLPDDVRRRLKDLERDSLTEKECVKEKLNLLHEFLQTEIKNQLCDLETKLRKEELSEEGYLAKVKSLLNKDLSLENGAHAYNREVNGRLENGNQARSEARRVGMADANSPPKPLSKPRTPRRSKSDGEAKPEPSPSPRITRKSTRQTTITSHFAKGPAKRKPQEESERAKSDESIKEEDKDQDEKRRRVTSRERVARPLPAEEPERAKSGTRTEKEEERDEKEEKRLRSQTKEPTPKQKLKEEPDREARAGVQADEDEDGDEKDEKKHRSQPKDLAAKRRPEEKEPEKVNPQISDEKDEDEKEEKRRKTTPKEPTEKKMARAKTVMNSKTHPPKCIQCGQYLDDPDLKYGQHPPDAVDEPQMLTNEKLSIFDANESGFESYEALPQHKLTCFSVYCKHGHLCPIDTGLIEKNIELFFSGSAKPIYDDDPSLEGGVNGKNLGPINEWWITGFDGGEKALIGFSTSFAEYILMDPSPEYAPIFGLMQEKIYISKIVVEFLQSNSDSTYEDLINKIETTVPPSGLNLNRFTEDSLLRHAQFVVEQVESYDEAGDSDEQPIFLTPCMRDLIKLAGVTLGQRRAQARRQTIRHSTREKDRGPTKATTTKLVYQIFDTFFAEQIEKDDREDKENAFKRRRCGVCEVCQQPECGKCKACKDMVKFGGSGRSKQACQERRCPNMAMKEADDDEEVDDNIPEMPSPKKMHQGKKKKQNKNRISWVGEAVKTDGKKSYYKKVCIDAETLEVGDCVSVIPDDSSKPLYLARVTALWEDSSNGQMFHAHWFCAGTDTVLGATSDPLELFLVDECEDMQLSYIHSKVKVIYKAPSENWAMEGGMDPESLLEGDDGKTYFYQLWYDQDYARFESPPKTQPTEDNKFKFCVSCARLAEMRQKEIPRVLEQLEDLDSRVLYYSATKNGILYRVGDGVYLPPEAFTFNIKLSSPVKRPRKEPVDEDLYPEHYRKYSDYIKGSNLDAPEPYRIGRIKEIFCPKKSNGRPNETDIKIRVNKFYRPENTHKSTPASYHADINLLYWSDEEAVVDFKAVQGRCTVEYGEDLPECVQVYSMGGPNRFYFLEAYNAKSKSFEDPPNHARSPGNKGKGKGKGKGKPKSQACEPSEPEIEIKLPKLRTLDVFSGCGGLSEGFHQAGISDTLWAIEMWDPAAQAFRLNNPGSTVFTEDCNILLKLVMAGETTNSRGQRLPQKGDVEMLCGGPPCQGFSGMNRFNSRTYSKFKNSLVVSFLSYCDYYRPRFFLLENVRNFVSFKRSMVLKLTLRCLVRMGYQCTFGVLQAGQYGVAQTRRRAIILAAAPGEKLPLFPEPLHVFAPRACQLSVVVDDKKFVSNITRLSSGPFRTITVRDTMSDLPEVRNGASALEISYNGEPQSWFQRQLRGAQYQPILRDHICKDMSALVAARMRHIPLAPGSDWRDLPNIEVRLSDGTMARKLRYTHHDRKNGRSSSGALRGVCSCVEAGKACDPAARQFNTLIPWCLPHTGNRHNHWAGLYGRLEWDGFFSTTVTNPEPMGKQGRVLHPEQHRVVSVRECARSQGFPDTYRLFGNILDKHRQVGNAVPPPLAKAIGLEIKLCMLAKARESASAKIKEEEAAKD
Method: His-DNMT1 (182 kDa, human) was cloned, expressed and purified as described in the literature (Halby et al. ChemBioChem 2012, 13, 157-165). The reaction was performed in a […] total reaction volume in low volume NBS™ 384-well microplates (Corning), containing the tested compound (up to 1% DMSO), 1 μM of a SAM/[methyl-^3H] SAM (3 TBq/mmol, PerkinElmer) mix in a ratio of 3-to-1 (isotopic dilution 1*:3), 0.3 μM of biotinylated hemimethylated DNA duplex (5′-GATmCGCmCGATGmCGmCGAATmCGmCGATmCGATGmCGAT-3′ and BIOT-5′-[…]-3′), and 90 nM of DNMT1 in methylation buffer (20 mM HEPES pH 7.2, 1 mM EDTA, 50 mM KCl, 25 μg/mL BSA). The reaction was incubated at 37° C. for 2 hours. 8 μL, are then transferred into a streptavidin 96-well scintillant coated Flashplate™ (PerkinElmer) containing 190 μL of 20 μM SAH in 50 mM Tris-HCl pH 7.4. The Flashplate™ was agitated at room temperature for 1 hour and read in 200 μL of 50 mM Tris-HCl pH 7.4 on TopCount NXT (PerkinElmer). The percentage of inhibition is reported. The formula used to calculate the percentage of inhibition is [(X−Y)/X]×100, where X is the signal determined in the absence of the inhibitor and Y is the signal obtained in the presence of the inhibitor.

COc1ccc2cc1Oc1ccc(cc1)C[C@@H]1NCCc3cc(OC)c4c(c31)Oc1cc3c(cc1O4)CCN(C)[C@H]3C2 [Compound 1, Trilobine]
Chromatin accessibility, KG1 CMV-Luc model [1]: 1.9 ± 0.1
DNA demethylation, KG1 CMV-Luc model [1]: −37 ± 8%
inhibition at 32 µM [2]: 50%
